Assay results from the NIST ThermoML archive (doi:10.1016/j.jct.2018.12.023).
Numbers after ± are expanded uncertainties. Values belong to the compound of their own block, whether it stands above or below them.

Settings: Liquid, Ebulliometric method (Recirculating still)

- vapor or sublimation pressure (351.45 K): 101.3 ± 1.6 kPa
SMILES: CCO [ethanol]

- vapor or sublimation pressure (372.25 K): 101.3 ± 1.6 kPa
SMILES: CCOC(=O)CC [ethyl propanoate]

- vapor or sublimation pressure (414.32 K): 101.3 ± 1.6 kPa
SMILES: CCC(=O)O [propanoic acid]

SMILES: CCI [iodoethane]
- vapor or sublimation pressure (345.5 K): 101.3 ± 1.6 kPa
